Laboratory results published in patent US10947196B2, “Beta adrenergic agonist and methods of using the same” (CURASEN THERAPEUTICS, INC., priority 2019, dated 2021).
Read-outs that look alike come from different tables or passages of the source.

Assays:
[1] = target: β1-adrenergic receptor (Homo sapiens (Human), UniProt P08588); experiment: cAMP Gs dynamic HTRF assay, β1 expressing CHO cells; format: cell-based
Protocol: (§1) cAMP homogeneous time-resolved fluorescence (HTRF). Compound efficacy was determined using the cAMP Gs dynamic HTRF assay (Cisbio, catalog #62AM4PEC) largely following the manufacturer's instructions, also detailed below.
(§2) Compound preparation. […] Standard serial dilution curves were 10-point, 5-fold dilutions starting from a highest concentration of 10 μM. […] Assay plates were centrifuged at 500×g for 10 seconds. Compounds and IBMX were prepared at 2× final dose to compensate for addition of cells.
(§3) Cell preparation. 1× stimulation buffer, washing PBS (Dulbecco's phosphate-buffered saline, −Mg −Ca; Caisson Labs, catalog #PBL01), assay PBS (Dulbecco's phosphate-buffered saline, +Mg, +Ca; Caisson Labs, catalog #PBL02) and Versene (0.02% EDTA disodium salt solution in PBS without calcium or magnesium; Caisson Labs, catalog #EDL01) were pre-warmed to 37° C. Cells expressing beta-adrenergic receptor were washed in washing PBS to remove growth medium and then released from the surface by incubating with Versene for 5-10 minutes at 37° C. Cells were harvested using assay PBS, counted manually by hemocytometer or by an automated cell counter, pelleted by centrifugation (200×g, 5 minutes) and resuspended in 37° C. 1× stimulation buffer to a final density of 1.5×10^6 cells/mL. 5 μL of the suspended cell solution (7500 cell total) were added to all wells of the 384 well assay plate, the assay plate was covered with an Axygen® plate seal (Corning PCR-SP) and incubated in a humidified 37° C. environment supplemented with 5% CO2 for 30 minutes.
(§4) HTRF reagent addition, reading and data analysis. After 30 minutes of cell stimulation with test compound, the assay plates were centrifuged at 500×g for 10 seconds, and incubation was stopped with the addition of 5 μL cAMP-D2 acceptor, diluted 1:21 in detection and lysis buffer 2 (Cisbio 62CL2FDF) was added to all cells. Subsequently, 5 μL Anti-cAMP-Eu Donor, diluted 1:21 in detection and lysis buffer 2, was added to cells. Plates were sealed and reactions gently ‘vortexed’ at 900 rpm on a Heidolph Titramax 1000 for at least 30 minutes at room temperature. Plates were centrifuged again at 500×g for 10 seconds, and HTRF was measured using a Tecan Spark plate reader at 50 flashes per well. […] Potency estimates (EC50) were derived from the four-parameter nonlinear regression of the concentration-effect curve and an estimate of relative efficacy was determined by comparing the magnitude of the test compound HTRF signal window (min−max dose) with the signal window of the full agonist control, isoproterenol.

[2] = target: β2 adrenergic receptor (Homo sapiens (Human), UniProt P07550); experiment: cAMP Gs dynamic HTRF assay, β2 expressing CHO cells; format: cell-based
Chain of β2 adrenergic receptor (P07550 whole entry, species assumed): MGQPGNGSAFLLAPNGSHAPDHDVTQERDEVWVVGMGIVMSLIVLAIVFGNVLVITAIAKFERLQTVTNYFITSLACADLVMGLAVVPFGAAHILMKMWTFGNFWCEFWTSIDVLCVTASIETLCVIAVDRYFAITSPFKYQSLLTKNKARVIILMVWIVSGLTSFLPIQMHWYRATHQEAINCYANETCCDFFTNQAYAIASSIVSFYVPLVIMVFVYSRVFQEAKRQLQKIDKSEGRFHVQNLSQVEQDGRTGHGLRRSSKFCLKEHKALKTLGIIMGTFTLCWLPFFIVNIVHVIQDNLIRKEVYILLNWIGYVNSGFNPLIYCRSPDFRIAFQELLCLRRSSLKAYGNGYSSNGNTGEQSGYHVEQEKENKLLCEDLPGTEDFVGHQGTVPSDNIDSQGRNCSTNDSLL
Protocol: as §1, §2, §3, §4

[3] = B1-AR, CHO-K1 (HitHunter), read-out: Average pEC50 [Receptor subtype: B1-AR, Cell type: CHO-K1 (HitHunter)] (converted)
[4] = B2-AR, CHO-K1 (HitHunter), read-out: Average pEC50 [Receptor subtype: B2-AR, Cell type: CHO-K1 (HitHunter)] (converted)
[5] = B1-AR, CHO-K cells, read-out: Average EC50 [Receptor subtype: B1-AR, Cell type: CHO-K]
[6] = B2-AR, CHO-K cells, read-out: Average EC50 [Receptor subtype: B2-AR, Cell type: CHO-K]

Chain of β1-adrenergic receptor (P08588 whole entry, species assumed): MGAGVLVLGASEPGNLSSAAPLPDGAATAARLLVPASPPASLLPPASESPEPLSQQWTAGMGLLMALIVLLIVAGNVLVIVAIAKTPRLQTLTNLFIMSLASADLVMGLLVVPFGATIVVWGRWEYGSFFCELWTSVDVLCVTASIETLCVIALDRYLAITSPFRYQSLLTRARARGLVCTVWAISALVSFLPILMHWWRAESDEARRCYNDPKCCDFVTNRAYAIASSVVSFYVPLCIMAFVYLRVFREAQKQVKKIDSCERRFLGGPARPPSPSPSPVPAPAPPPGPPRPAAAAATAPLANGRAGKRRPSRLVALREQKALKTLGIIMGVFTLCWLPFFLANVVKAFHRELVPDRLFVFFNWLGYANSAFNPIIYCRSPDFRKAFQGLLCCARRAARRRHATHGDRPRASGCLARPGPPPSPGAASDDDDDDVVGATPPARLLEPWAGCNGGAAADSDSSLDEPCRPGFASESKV

Row | Structure (SMILES) | EC50 [1, 3] [µM] | EC50 [2, 4] [µM] | EC50 [1, 5] [µM] | EC50 [2, 6] [µM] | also measured
1 | CC(C)(C)NC[C@H](O)c1cccnc1C1CCC1 [Compound 03-68] | 0.1 to 1 | 0.01 to 0.1 |  |  | 
2 | Cn1ccc(-c2cccc([C@H](O)CNC(C)(C)C)n2)n1 [Compound 03-226] | > 1 | 0.1 to 1 |  |  | 
3 | CNCc1cccc([C@@H](O)CNC(C)(C)C)n1 [Compound 03-252] | > 1 | > 1 |  |  | 
4 | CC(C)(C)NC[C@H](O)c1cccc(-c2ccncc2)n1 [Compound 03-221] | 0.01 to 0.1 | < 0.01 |  |  | 
5 | CC(C)(C)NC[C@@H](O)c1cccc(-c2ccccc2F)n1 [Compound 03-156] | > 1 | 0.01 to 0.1 | > 1 | 0.01 to 0.1 | 
6 | CC(C)(C)NC[C@H](O)c1ccnc(C#N)c1 [Compound 03-110] | > 1 | > 1 |  |  | 
7 | CC(C)(C)NC[C@H](O)c1cccc(-c2cccnc2)n1 [Compound 03-151] |  | < 0.01 | 0.01 to 0.1 | < 0.01 | Average pEC50 [Receptor subtype: B1-AR; Cell type: CHO-K1 (HitHunter)] ([1]; B1-AR, CHO-K1 (HitHunter)): B (B = 8-7)
8 | Cc1ccc([C@@H](O)CNC(C)(C)C)c(C2=CCCC2)n1 [Compound 03-90] | > 1 | > 1 |  |  | 
9 | CC(C)(C)NC[C@H](O)c1ccc2cccc(C(F)(F)F)c2n1 [Compound 03-163] |  |  | < 0.01 | < 0.01 | 
10 | CC(C)(C)NC[C@H](O)c1cccc(C(C)(C)C#N)n1 [Compound 03-207] | < 0.01 | < 0.01 |  |  | 
11 | COc1ccc(CC(C)(C)NC[C@@H](O)c2cccc(C(F)(F)F)n2)cc1 [Compound 03-183] | > 1 | 0.1 to 1 | > 1 | 0.1 to 1 | 
12 | CC(C)NC[C@@H](O)c1cccc(C(F)(F)F)n1 [Compound 03-36] | > 1 | > 1 | > 1 | > 1 | 
13 | CC(C)(C)NC[C@H](O)c1cccc(-n2cccn2)n1 [Compound 03-214] | 0.1 to 1 | < 0.01 |  |  | 
14 | Cc1ccc([C@H](O)CNC(C)(C)C)nc1 [Compound 03-128] | > 1 | > 1 | > 1 | > 1 | 
15 | O[C@H](CNC1(C(F)(F)F)CC1)c1cccc(C(F)(F)F)n1 [Compound 03-235] | > 1 | > 1 |  |  | 
16 | CC(C)(C)NC[C@H](O)c1cccc(-c2ccccc2Cl)n1 [Compound 03-133] |  | < 0.01 | 0.1 to 1 | < 0.01 | Average pEC50 [Receptor subtype: B1-AR; Cell type: CHO-K1 (HitHunter)] ([1]; B1-AR, CHO-K1 (HitHunter)): C (C = <7-6)
17 | O[C@H](CNC1CCC1)c1cccc(C(F)(F)F)n1 [Compound 03-34] |  | > 1 | > 1 | > 1 | Average pEC50 [Receptor subtype: B1-AR; Cell type: CHO-K1 (HitHunter)] ([1]; B1-AR, CHO-K1 (HitHunter)): D (D < 6)
18 | CC(C)(C)NC[C@H](O)c1cccc(C2=N[C@H](C(=O)O)CS2)n1 [Compound 03-246] | > 1 | > 1 |  |  | 
19 | Cc1cccnc1[C@@H](O)CNC(C)(C)C [Compound 03-4] |  |  |  |  | EC50 ([1]; cAMP HTRF, read-out: β1 EC50): > 1 µM; EC50 ([2]; cAMP HTRF, read-out: β2 EC50): > 1 µM
20 | Cc1ccccc1-c1cccc([C@@H](O)CNC(C)(C)C)n1 [Compound 03-149] | 0.1 to 1 | < 0.01 | 0.1 to 1 | < 0.01 | 

Row | Structure (SMILES) | EC50 [1, 3] [µM] | EC50 [2, 4] [µM] | EC50 [1, 5] [µM] | EC50 [2, 6] [µM] | also measured
21 | CC(C)c1cccc([C@H](O)CNC(C)(C)C)n1 [Compound 03-176] | > 1 | 0.1 to 1 | > 1 | 0.1 to 1 | 
22 | Cc1nc(C2CC2)ccc1[C@@H](O)CNC(C)(C)C [Compound 03-268] | 0.01 to 0.1 | < 0.01 |  |  | 
23 | CC(C)(C)NC[C@@H](O)c1ccc(C(F)(F)F)cn1 [Compound 03-125] | 0.1 to 1 | 0.1 to 1 | 0.1 to 1 | 0.1 to 1 | 
24 | CC(C)(C)NC[C@H](O)c1cc(C(F)(F)F)ccn1 [Compound 03-2] |  |  |  |  | EC50 ([1]; cAMP HTRF, read-out: β1 EC50): > 1 µM; EC50 ([2]; cAMP HTRF, read-out: β2 EC50): 0.1 to 1 µM
25 | COc1ccc(C[C@@H](C)NC[C@H](O)c2cccc(C3CCCC3)n2)cc1 [Compound 03-265] | 0.01 to 0.1 | < 0.01 |  |  | 
26 | COc1ccc(C[C@@H](C)NC[C@H](O)c2cc(Cl)cnc2C)cc1 [Compound 03-271] | 0.1 to 1 | 0.01 to 0.1 |  |  | 
27 | CC1(NC[C@@H](O)c2cccc(C(F)(F)F)n2)CC1 [Compound 03-13] | > 1 | > 1 | > 1 | > 1 | 
28 | CC(C)(C)NC[C@@H](O)c1cccc(C2CCOCC2)n1 [Compound 03-122] | > 1 | 0.1 to 1 | > 1 | 0.1 to 1 | 
29 | CC(C)(C)NC[C@H](O)c1ccc2ccccc2n1 [Compound 03-165] |  |  | < 0.01 | < 0.01 | 
30 | CC(C)(C)NC[C@@H](O)c1cccc(N2CCOCC2)n1 [Compound 03-158] |  | 0.01 to 0.1 | > 1 | 0.01 to 0.1 | Average pEC50 [Receptor subtype: B1-AR; Cell type: CHO-K1 (HitHunter)] ([1]; B1-AR, CHO-K1 (HitHunter)): D (D < 6)
31 | CC(C)(C)NC[C@H](O)c1cccc(Br)n1 [Compound 03-32] | < 0.01 | 0.01 to 0.1 | < 0.01 | 0.01 to 0.1 | 
32 | CC(C)(C)NC[C@H](O)c1cccnc1-n1nccn1 [Compound 03-74] | > 1 | > 1 |  |  | 
33 | CC(C)(C)NC[C@@H](O)c1cccc(OC(F)(F)F)n1 [Compound 03-186] | > 1 | 0.1 to 1 | > 1 | 0.1 to 1 | 
34 | COc1ccc(C[C@@H](C)NC[C@H](O)c2ccc(NC3CC3)nc2C)cc1 [Compound 03-275] |  |  |  |  | EC50 ([1]; Average pEC50 [Receptor subtype: B1-AR, Cell type: CHO-K1 (HitHunter)], B1-AR, CHO-K1 (HitHunter)): > 1 µM; EC50 ([2]; Average pEC50 [Receptor subtype: B2-AR, Cell type: CHO-K1 (HitHunter)], B2-AR, CHO-K1 (HitHunter)): 0.01 to 0.1 µM
35 | CC(C)(C)NC[C@H](O)c1cccc(C2CCCC2)n1 [Compound 03-198] | > 1 | 0.01 to 0.1 |  |  | 
36 | Cc1ccc(-c2cccc([C@@H](O)CNC(C)(C)C)n2)cc1 [Compound 03-143] | > 1 | 0.1 to 1 | > 1 |  | 
37 | CC(C)(C)NC[C@H](O)c1cccc(-c2cnn[nH]2)n1 [Compound 03-200] | 0.01 to 0.1 | < 0.01 |  |  | 
38 | CC(C)(C)NC[C@H](O)c1cccc(NC2(C)CC2)n1 [Compound 03-264] | 0.01 to 0.1 | < 0.01 |  |  | 
39 | CC(C)(C)NC[C@@H](O)c1cccc(-c2cccnc2)n1 [Compound 03-152] |  | 0.01 to 0.1 | > 1 | 0.1 to 1 | Average pEC50 [Receptor subtype: B1-AR; Cell type: CHO-K1 (HitHunter)] ([1]; B1-AR, CHO-K1 (HitHunter)): D (D < 6)
